The record followed here is the Kinase Knowledgebase extract (Sharma et al. 2016).

The target in this assay is MAPK14 (human) (UniProt Q16539). Briefly: Inhibition of LPS Stimulated TNF-alpha Production in THP-1 Cells. The following applies: thp1.

In general, IC50 refers to the midpoint of a concentration-inhibition curve.

Chain of MAPK14 (human) (Q16539 whole entry, looked up): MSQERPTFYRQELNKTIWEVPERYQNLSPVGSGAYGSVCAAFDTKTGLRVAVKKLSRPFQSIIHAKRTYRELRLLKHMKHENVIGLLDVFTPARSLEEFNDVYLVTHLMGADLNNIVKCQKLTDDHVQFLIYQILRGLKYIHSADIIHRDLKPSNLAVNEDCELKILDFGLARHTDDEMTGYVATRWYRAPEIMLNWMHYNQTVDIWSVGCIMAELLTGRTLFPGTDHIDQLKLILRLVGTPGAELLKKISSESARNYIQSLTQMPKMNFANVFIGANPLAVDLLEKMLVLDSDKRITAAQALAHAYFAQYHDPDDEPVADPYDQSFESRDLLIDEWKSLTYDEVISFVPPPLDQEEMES

With `CNc1nc(-c2ccc(Cl)cc2)c(-c2ccncc2)s1`, the 50% inhibitory concentration (IC50) is 180 nM.
The same measure for `COc1ccc(-c2nc(N)sc2-c2ccnc(NC(=O)c3ccccc3)c2)cc1`: 14 nM.
On to `CCc1nc(-c2ccc(Cl)cc2)c(-c2ccnc(NC(=O)c3ccccc3)c2)s1`, for which the half-maximal inhibitory concentration (IC50) was 15 nM.
As for `CCc1nc(-c2cccc(Cl)c2)c(-c2ccnc(NC(C)=O)c2)s1`, the IC50 was determined as 120 nM.
The same measure for `CNc1nc(-c2ccc(OC)cc2)c(-c2ccncc2)s1`: 140 nM; for `Cc1cccc(-c2nc(N(C)C(=O)c3ccc(C)nc3)sc2-c2ccnc(NC3CCCC3)c2)c1`: 82 nM.
The same measure for `CCCc1nc(-c2cccc(C)c2)c(-c2ccnc(N)c2)s1`: 2 nM; for `COc1ccc(-c2nc(NC(=O)c3cccnc3)sc2-c2ccnc(NC(=O)c3cccnc3)c2)cc1`: 26 nM; for `CCc1nc(-c2cccc(Cl)c2)c(-c2ccnc(N[C@@H](C)c3ccccc3)c2)s1`: 57 nM.
As for `Cc1cc(C)cc(-c2nc(N)sc2-c2ccnc(NC(=O)c3ccccc3)c2)c1`, the figure is 20 nM.
Regarding `CCc1nc(-c2cccc(Cl)c2)c(-c2ccnc(NC3CCCCC3)c2)s1`, the IC50 is 55 nM.
The same measure for `CCC(=O)Nc1cc(-c2sc(-c3ccc(S(C)(=O)=O)cc3)nc2-c2cccc(Cl)c2)ccn1`: 21 nM; for `Cc1cc(C)cc(-c2nc(N)sc2-c2ccnc(NCc3ccccc3)c2)c1`: 140 nM.
As for `Cc1cccc(-c2nc(N)sc2-c2ccncc2)c1`, the figure is 46 nM; as for `CCc1nc(-c2cccc(C)c2)c(-c2ccnc(NC(=O)c3ccsc3)c2)s1`, 5.9 nM.
